Assay results from PMC6100415, “Hepatic Metabolism of Sakuranetin and Its Modulating Effects on Cytochrome P450s and UDP-Glucuronosyltransferases” (Molecules : A Journal of Synthetic Chemistry and Natural …, 2018).
Blank lines part the entries; values can stand above or below the molecule they belong to.

Assays:
CYP2C9 [1] = target: T1, CYP2C9 (Homo sapiens, UniProt P11712); experiment: in vitro; conditions: human liver microsomes, pH 7.4, probe diclofenac (4′-hydroxylation, DCHY), 200 µM
Experimental: (§4) The formation of a metabolite from a CYP isozyme-specific phenotyping reaction (Table 4) was monitored. Each substrate (200 μM), along with SKN (10 μM), was incubated with human liver microsomes (0.5 mg/mL) and an NADPH-generating system in 0.1 M potassium phosphate buffer (pH 7.4) at 37 °C for 60 min in a total volume of 200 μL in a shaking water bath. The metabolic reaction was initiated by adding NADP^+ (1 mM) and stopped by adding 10 μL of trichloroacetic acid. In some experiments, the microsomes were pre-incubated with SKN for 15 min prior to the addition of the cofactor, in order to determine the time-dependent inhibitory effect. […] In contrast, co-incubation refers to experiments in which microsomes and cofactors were incubated in the presence of SKN. After centrifugation of incubation samples at 12,000× g for 15 min at 4 °C, the supernatant (20 μL) was injected into an HPLC-DAD system to analyze the metabolites formation (Supplementary Materials).
(§5) The DAD was set at 248 nm for phenacetin O-deethylation (PCOD), 298 nm for bupropion hydroxylation (BPHY), 276 nm for diclofenac 4′-hydroxylation (DCHY), 230 nm for tolbutamide 6-hydroxylation (TOLHY), 280 nm for dextromethorphan O-demethylation (DEXOD), and 250 nm for testosterone 6β-hydroxylation (TSTHY) and testosterone β-D-glucuronidation (TSTG).

CYP2C9 [2] = target: T1, CYP2C9; experiment: in vitro; conditions: human liver microsomes, pH 7.4, probe tolbutamide (6-hydroxylation, TOLHY), 200 µM
Experimental: as §4, §5

[3] = system: hPXR-mediated CYP3A4 promoter; experiment: PXR-mediated CYP3A4 promoter luciferase assay in HepG2 cells; type: cell-based, human; conditions: pcDNA3-PXR-transfected HepG cells, SKN 20 μM, 24 h
Experimental: (§1) HepG2 cells (American Tissue Culture Collection, Manassas, VA, USA) were maintained in Dulbecco’s modified Eagle’s essential medium (DMEM), containing 10% fetal bovine serum, 1% nonessential amino acids, 1% GlutaMAX®, and 1% antibiotics/antimycotics at 37 °C in a 5% CO2 atmosphere. The expression plasmid encoding the human constitutive androstane receptor (hCAR; pcDNA3-CAR) and the pGL3-CYP2B6 luciferase construct were kindly provided by Dr. Hongbing Wang (University of Maryland, College Park, MD, USA). The plasmid encoding the human pregnane X receptor (hPXR; pcDNA3-PXR) and the pGL3-CYP3A4 luciferase construct were obtained from Dr. Masahiko Negishi at the National Institutes of Health (Bethesda, MD, USA). Cells were seeded at a density of 1.5 × 10^5 cells/well into a 24-well plate. The next day, the cells were transfected with 0.25 μg of either pcDNA3-CAR or pcDNA3-PXR and 0.25 μg of a promoter luciferase plasmid (either pGL3-CYP2B6 or pGL3-CYP3A4) using Lipofectamine 2000 (Invitrogen, Carlsbad, CA, USA) according to the manufacturer’s instructions. […] The cells were harvested and luciferase activity was measured as described previously.

[4] = system: hCAR-mediated CYP2B6 promoter; experiment: CAR-mediated CYP2B6 promoter luciferase assay in HepG2 cells; type: cell-based, human; conditions: pcDNA3-CAR-transfected HepG2 cells, 24 h; CITCO 500 nM
Experimental: as §1

[5] = NADPH-dependent phase I metabolic stability in mouse liver microsomes; type: in vitro ADME
Experimental: (§2) Metabolic stability was measured by monitoring the amount of parent compound that remained in an incubation mixture at designated incubation time points. For the phase I metabolism study, SKN (100 μM) was incubated with liver microsomes (1 mg/mL, rat, mouse, and dog; and 0.5 mg/mL, human), and an NADPH-generation cocktail consisting of nicotinamide adenine dinucleotide phosphate (NADP^+, 1 mM), glucose-6-phosphate (5 mM), glucose-6-phosphate dehydrogenase (1 unit/mL), and MgCl2 (10 mM) in potassium phosphate buffer (0.1 M, pH 7.4) in a total volume of 1 mL. To study phase II glucuronide conjugative metabolism, uridine 5′-diphosphoglucuronic acid (UDPGA) (2 mM) was added as a cofactor. The mixture was incubated in a shaking water bath, and the enzyme reaction was initiated by the addition of NADP^+, UDPGA, or both. Aliquots (100 μL) were removed at 0, 5, 15, 30, 45, and 60 min, and the reaction was terminated by adding two volumes of ice-cold methanol. […] The half-life of SKN was obtained by plotting the remaining amount of SKN against time using Prism 3.0 software (GraphPad, La Jolla, CA, USA). Hepatic intrinsic clearance (CLint, hepatic) was calculated using the following formula [20]:CLint, hepatic = (0.693/t1/2) × (g liver weight/kg body weight) × (mL incubation/mg of microsomal protein) × (mg microsomal protein concentration/g of liver)
(§3) The DAD was set at 280 nm.

[6] = UDPGA-dependent metabolic stability in rat liver microsomes; type: in vitro ADME; conditions: for CLint scaled at 100 µM: read-out: CLint, hepatic; for half-life at 100 µM: rat, pH 7.4, rat liver microsomes
Experimental: as §2, §3

estrogen receptor (ER) = target: T2, estrogen receptor (ER) (Homo sapiens, UniProt P03372); experiment: Estrogen receptor agonist-like activity in ER-positive human breast cancer cells; type: cell-based; conditions: preliminary data, not shown
T2 construct: endogenous in cells
T2 sequence (P03372 1-595): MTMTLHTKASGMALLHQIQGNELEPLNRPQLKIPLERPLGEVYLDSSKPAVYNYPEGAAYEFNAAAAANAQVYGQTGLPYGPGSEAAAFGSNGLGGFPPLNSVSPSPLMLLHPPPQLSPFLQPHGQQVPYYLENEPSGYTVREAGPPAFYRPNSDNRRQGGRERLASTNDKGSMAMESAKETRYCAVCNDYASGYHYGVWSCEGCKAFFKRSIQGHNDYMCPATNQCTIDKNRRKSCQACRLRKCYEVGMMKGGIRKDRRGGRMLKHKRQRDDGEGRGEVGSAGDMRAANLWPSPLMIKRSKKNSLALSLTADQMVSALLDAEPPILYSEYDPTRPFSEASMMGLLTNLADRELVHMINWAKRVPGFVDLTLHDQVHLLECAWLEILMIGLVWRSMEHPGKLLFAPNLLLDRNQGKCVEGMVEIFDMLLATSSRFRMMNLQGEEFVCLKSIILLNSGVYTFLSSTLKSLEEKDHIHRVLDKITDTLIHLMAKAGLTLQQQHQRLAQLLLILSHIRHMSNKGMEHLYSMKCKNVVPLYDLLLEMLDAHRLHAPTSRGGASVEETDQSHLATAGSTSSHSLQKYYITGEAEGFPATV

[7] = UDPGA-dependent metabolic stability in mouse liver microsomes; type: in vitro ADME; conditions: for half-life at 100 µM / CLint scaled at 100 µM: mouse, pH 7.4, mouse liver microsomes; for CLint scaled at 100 µM: read-out: CLint, hepatic
Experimental: as §2, §3

[8] = NADPH-dependent phase I metabolic stability in human liver microsomes; type: in vitro ADME
Experimental: as §2, §3

[9] = UDPGA-dependent metabolic stability in human liver microsomes; type: in vitro ADME; conditions: for half-life at 100 µM / CLint scaled at 100 µM: human, pH 7.4, human liver microsomes; for CLint scaled at 100 µM: read-out: CLint, hepatic
Experimental: as §2, §3

[10] = system: various cancer cell lines; conditions: cited from earlier work

T1 sequence (P11712 whole entry): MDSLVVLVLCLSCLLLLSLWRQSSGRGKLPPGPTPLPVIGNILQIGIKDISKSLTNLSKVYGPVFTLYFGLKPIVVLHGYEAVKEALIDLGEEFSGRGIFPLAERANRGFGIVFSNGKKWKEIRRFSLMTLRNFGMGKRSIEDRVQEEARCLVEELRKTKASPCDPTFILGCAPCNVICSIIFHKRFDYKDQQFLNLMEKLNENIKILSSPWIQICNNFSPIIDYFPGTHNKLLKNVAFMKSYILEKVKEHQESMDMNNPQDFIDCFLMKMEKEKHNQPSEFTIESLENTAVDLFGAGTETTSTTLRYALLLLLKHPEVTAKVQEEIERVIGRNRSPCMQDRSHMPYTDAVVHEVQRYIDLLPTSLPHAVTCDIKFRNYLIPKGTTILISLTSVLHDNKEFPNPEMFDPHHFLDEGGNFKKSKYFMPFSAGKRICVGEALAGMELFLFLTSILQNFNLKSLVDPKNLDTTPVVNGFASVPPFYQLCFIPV

inhibition at 60 min, 10 µM (CYP2C9 [1]): 9.1 ± 1.8%
inhibition at 60 min, 10 µM (CYP2C9 [2]): 12 ± 0.7%
SMILES: O=C1C[C@@H](c2ccc(O)cc2)Oc2cc(O)cc(O)c21 [Naringenin]

CYP3A4-luciferase activity increase [3]: 3.8 fold
CYP2B6 luciferase activity increase [4]: not affected
Amount Remaining at 30 min (%) ([5]; mouse liver microsomes 1 mg/mL, SKN 100 μM): 4.90%
amount of SKN remaining after 60 min of incubation ([5]; mouse liver microsomes, 60 min): 4.9%
half-life at 100 µM ([5]; pH 7.4, mouse liver microsomes): 5.4 min
CLint scaled at 100 µM ([5]; pH 7.4, mouse liver microsomes, read-out: CLint, hepatic): 565 mL/min/kg
Amount Remaining at 30 min (%) ([6]; NADPH +): 0.0%
Amount Remaining at 30 min (%) ([6]; NADPH −): 17.1%
CLint scaled at 100 µM ([6]; pH 7.4, NADPH +): 557 mL/min/kg
CLint scaled at 100 µM ([6]; pH 7.4, NADPH −): 287 mL/min/kg
half-life at 100 µM ([6]; NADPH +): 2.2 min
half-life at 100 µM ([6]; NADPH −): 4.4 min
estrogen receptor (ER) agonist-like activity (estrogen receptor (ER)): agonist-like activity
Amount Remaining at 30 min (%) ([7]; NADPH +): 0.0%
t1/2 ([7]; NADPH +): 0.91 min
Amount Remaining at 30 min (%) ([7]; NADPH −): 1.8%
half-life at 100 µM ([7]; NADPH +): 0.9 min
CLint scaled at 100 µM ([7]; NADPH +): 3280 mL/min/kg
half-life at 100 µM ([7]; NADPH −): 3.8 min
CLint scaled at 100 µM ([7]; NADPH −): 802 mL/min/kg
Amount Remaining at 30 min (%) ([8]; human liver microsomes 0.5 mg/mL, SKN 100 μM): 65.5%
amount of SKN remaining after 60 min of incubation ([8]; human liver microsomes, 60 min): greater than 50%
half-life at 100 µM ([8]; pH 7.4, human liver microsomes): > 60 min
CLint scaled at 100 µM ([8]; pH 7.4, human liver microsomes, read-out: CLint, hepatic): < 20.8 mL/min/kg
Amount Remaining at 30 min (%) ([9]; NADPH +): 54.9%
Amount Remaining at 30 min (%) ([9]; NADPH −): 71.3%
half-life at 100 µM ([9]; NADPH +): 25 min
CLint scaled at 100 µM ([9]; NADPH +): 49.9 mL/min/kg
half-life at 100 µM ([9]; NADPH −): > 30 min
CLint scaled at 100 µM ([9]; NADPH −): < 41.6 mL/min/kg
SMILES: COc1cc(O)c2c(c1)OC(c1ccc(O)cc1)CC2=O (racemic) [SKN, (+/−) 7-O-methylnaringenin]

inhibition at 60 min, 10 µM (CYP2C9 [1]): 1 ± 0.7%
inhibition at 60 min, 10 µM (CYP2C9 [2]): 7.7 ± 0.4%
SMILES: O=C1C[C@@H](c2ccc(O)c(O)c2)Oc2cc(O)cc(O)c21 [Eriodictyol, 3′-hydroxynaringenin]
anti-proliferative activity compared to naringenin [10]: two-fold higher
